Molecules are shown by their SMILES.

Test [1] relates to CAL-51. As to the kind of experiment: CellTiter-Glo cell viability, combination matrix with PARP inhibitors (HSA synergy), CAL-51. It counts as cell-based. The settings on record: CAL-51, TP53 WT, BRCA2 Mutant, 72 h. Here is the method: (§1) The cell line will be treated with test articles alone, matrix combinations with test articles and culture medium as vehicle control.
(§2) • 1. Harvest cells during the logarithmic growth period and count cell number. • 2. Adjust cell concentrations to 4.0×10^4cells/mL with respective culture medium. • 3. Add 100 μL cell suspensions to three 96-well plates (plates A, B and C) with the final cell density of 4×10^3 cells/well. 4a. Next Day: For the Plates of TO Reading: • 1) Equilibrate the plate A and its content at RT for approximately 30 min. • 2) Add 50 μL CellTiter-Glo reagent to each well. • 3) Mix content for 5 min on an orbital shaker to induce cell lysis. • 4) Allow the plate to incubate at RT for 20 min to stabilize luminescent signal. • 5) Record luminescence (TO) using EnVision Multi Label Reader. 4b. For the Plates of Test Reading: • 1) Prepare 500× solution of test articles (Top working concentration: 10 μM/100 μM of test articles in media with 3-fold serial dilutions to achieve 9 dose levels. • 2) Prepare 10× reference control solutions (Top working concentration: 100 μM in media with 3.16-fold serial dilutions. • 3) Dispense 500× drug solutions in each well (triplicate for each drug concentration) of the plate B using digital dispenser. […] Record luminescence (T3) using EnVision Multi Label Reader. […]
For orientation: In ATP-based viability assays light output follows the ATP content of the culture.

Test [2] concerns panel of 237 cancer cell lines. Description: Cell panel screen of 237 cancer cell lines. It counts as cell-based. Conditions: MSI-H colorectal cell lines. The source says:
Genomic features for these cell lines such as somatic mutations, copy number alterations and hypermethylation were obtained from the list of Cancer Functional Events as mentioned in Garnett et al (2016) ANOVA method was used to identify significant associations of genomics features to drug response.

The test system of test [3] is patient-derived organoids (PDOs). Description: Proliferation assays on patient-derived organoids (PDOs), BRCA1/BRCA2/ATM status. It is filed as cell-based. Here is the method: Organoids were retrieved from the CrownBIO organoid bank and expanded before getting enough quantity according to standard operation procedure. One day before organoids seeding, the needed number of organoids were passaged 1:1 using 50% Matrigel and 50% corresponding culture medium. On Day 0 organoids were seeded and compound added: organoids were collected by adding 20 μl 100× Dispase solution to each well from a 6-well plate, and incubating at 37C for 30 min. After incubation, organoids were collected from all wells and pipetted through a pre-wet 100 μm filter into a 50 ml plastic tube, then filtered the flow through over a pre-wet 20 μm filter, inverted the 20 μm filter and recovered the organoids in a new 50 ml tube, Collect organoids were then resuspended in the corresponding culture media, and counted. Organoids cell suspensions were added to 384-well plate by Multidrop dispenser. 2-4 hours after organoids seeding, compounds were added by Tecan D300e, then plates were placed back into incubator for 5 days' incubation. On day 5, proliferation was assayed by CellTiter-Glo assay. […] The plate was then read (for luminescence) in an Envision plate reader.

Test [4] deals with MSI-H cell lines. As to the kind of experiment: Proliferation assays on cancer cell lines (CellTiter-Glo), MSI-H cell lines. It counts as cell-based. The settings on record: eight MSI-H cell lines from different indications (FIG. 4B). Here is the method:
Cancer cells were cultured in appropriate medium. […] Each cell line was tested in triplicates.

Test [5] deals with xenograft model of MSI-H colorectal cancer (HCT-116). As to the kind of experiment: In vivo efficacy, HCT116 xenograft. Conditions: HCT-116 xenograft, 50 mg/kg daily (FIG. 4D). Also on record: species or system BALB/c nude mice. The protocol:
5×10^6 HCT116 cells (in 100 μl of PBS) were injected subcutaneously into the right hind flank of groups of BALB/c nude mice. Tumours were measured externally by using a pair of digital callipers and volumes calculated as length×width^2×0.523. Before starting the study, the mice were arranged into groups of 8 according to tumour volume; mean volume should be circa 100 mm^3 with a normal range of 50 to 150 mm^3. […] Tumour volumes were measured every 2 to 3 days; animals were sacrificed when tumour volume was >1000 mm^3 or if the tumours started to show any abnormalities, such as ulceration.

The subject of test [6] is A2780. Description: CellTiter-Glo cell viability, combination matrix with PARP inhibitors (HSA synergy), A2780. The settings on record: A2780, TP53 WT, DDR defective, 72 h. It counts as cell-based. Here is the method:
as §1, §2

The mark [7] stands for this setting: Compound 1 in combination with Olaparib.
[8] abbreviates: Compound 1 in combination with Talazoparib.

For `CC[C@@](O)(c1cc(F)c2c(c1)C(=O)N([C@H](c1ccc(Cl)cc1)[C@H](C)C(=O)O)[C@@]2(OC)c1ccc(Cl)cc1)C1CCOCC1` [Example 124, (2S,3S)-3-(4-chlorophenyl)-3-[(1R)-1-(4-chlorophenyl)-7-fluoro-5-[(1S)-1-hydroxy-1-(oxan-4-yl)propyl]-1-methoxy-3-oxo-2,3-dihydro-1H-isoindol-2-yl]-2-methylpropanoic acid], the “HSA_Average <−5 Antagonism >+5 Synergy” value was 8.0 in test [1] (setting [7]), 15.7 in test [1] (setting [8]), 6.2 in test [6] (setting [7]) and 12.3 in test [6] (setting [8]). The “sensitivity in the cell panel data” value in test [2] was “sensitive”. The “sensitivity as measured by reduction in cell proliferation” value is “showed sensitivity” in test [3] (4 PDOs with alterations in either ATM, BRCA1 and/or BRCA2 (FIG. 2F-G)); “resistant” in test [3] (4 additional PDOs with no alterations in ATM, BRCA1 and/or BRCA2); “showed sensitivity” in test [4]. The tumour growth inhibition entry in test [5] is given as “significantly inhibits tumour growth”.

Source of the values: US20240293364A1, “BIOMARKERS FOR CANCER THERAPY USING MDM2 ANTAGONISTS” (OTSUKA PHARMACEUTICAL CO., LTD., priority 2021, published 2024).
